Activity calls are given as the source filed them. No cut-off for these calls is given here.
Experiments:
[1] = molecular target: Epidermal growth factor receptor (Homo sapiens, UniProt P00533); test: Inhibition of human N-terminal GST-tagged EGFR (696 to 1022 residues) expressed in Sf21 insect cells by HTRF assay
[2] = molecular target: Epidermal growth factor receptor (Homo sapiens, UniProt P00533, L858R); test: Inhibition of human N-terminal GST-tagged EGFR L858R mutant (696 to 1022 residues) expressed in Sf21 insect cells by HTRF assay
Sequence of Epidermal growth factor receptor (Homo sapiens, UniProt P00533, L858R) (P00533 25-1210 L858R limits assumed): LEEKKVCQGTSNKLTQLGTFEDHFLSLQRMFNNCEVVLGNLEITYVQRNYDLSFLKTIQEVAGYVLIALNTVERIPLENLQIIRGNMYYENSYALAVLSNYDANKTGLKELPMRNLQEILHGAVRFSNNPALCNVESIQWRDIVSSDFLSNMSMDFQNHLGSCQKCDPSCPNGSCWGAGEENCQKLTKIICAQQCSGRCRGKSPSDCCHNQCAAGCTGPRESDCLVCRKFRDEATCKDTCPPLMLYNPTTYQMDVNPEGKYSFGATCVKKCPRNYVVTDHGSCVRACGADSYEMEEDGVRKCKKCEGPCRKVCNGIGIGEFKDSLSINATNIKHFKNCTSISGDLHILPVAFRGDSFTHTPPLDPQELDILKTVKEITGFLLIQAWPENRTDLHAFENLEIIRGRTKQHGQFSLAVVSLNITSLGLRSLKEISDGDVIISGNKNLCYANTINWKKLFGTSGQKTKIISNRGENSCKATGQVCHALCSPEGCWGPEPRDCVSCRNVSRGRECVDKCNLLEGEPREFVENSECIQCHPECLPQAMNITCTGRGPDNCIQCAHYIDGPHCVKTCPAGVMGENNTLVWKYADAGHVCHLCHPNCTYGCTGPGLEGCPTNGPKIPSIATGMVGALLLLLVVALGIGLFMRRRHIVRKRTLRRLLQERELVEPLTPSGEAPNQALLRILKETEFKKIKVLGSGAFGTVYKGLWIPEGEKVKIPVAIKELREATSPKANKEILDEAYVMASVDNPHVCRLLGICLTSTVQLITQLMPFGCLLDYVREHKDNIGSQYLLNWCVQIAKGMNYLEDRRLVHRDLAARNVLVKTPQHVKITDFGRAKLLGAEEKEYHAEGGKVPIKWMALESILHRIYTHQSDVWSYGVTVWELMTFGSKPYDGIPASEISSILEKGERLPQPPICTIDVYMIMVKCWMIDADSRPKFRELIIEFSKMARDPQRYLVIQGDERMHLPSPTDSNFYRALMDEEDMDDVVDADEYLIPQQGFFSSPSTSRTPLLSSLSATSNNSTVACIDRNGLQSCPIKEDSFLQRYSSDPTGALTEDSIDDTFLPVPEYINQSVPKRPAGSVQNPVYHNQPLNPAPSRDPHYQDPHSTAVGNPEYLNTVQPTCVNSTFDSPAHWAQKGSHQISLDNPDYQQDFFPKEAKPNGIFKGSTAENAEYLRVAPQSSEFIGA

[3] = molecular target: Epidermal growth factor receptor (Homo sapiens, UniProt P00533, L858R/T790M); test: Inhibition of human N-terminal GST-tagged EGFR double T790M/L858R mutant (696 to 1022 residues) expressed in Sf21 insect cells by HTRF assay
Sequence of Epidermal growth factor receptor (Homo sapiens, UniProt P00533, L858R/T790M) (P00533 25-1210 T790M/L858R limits assumed): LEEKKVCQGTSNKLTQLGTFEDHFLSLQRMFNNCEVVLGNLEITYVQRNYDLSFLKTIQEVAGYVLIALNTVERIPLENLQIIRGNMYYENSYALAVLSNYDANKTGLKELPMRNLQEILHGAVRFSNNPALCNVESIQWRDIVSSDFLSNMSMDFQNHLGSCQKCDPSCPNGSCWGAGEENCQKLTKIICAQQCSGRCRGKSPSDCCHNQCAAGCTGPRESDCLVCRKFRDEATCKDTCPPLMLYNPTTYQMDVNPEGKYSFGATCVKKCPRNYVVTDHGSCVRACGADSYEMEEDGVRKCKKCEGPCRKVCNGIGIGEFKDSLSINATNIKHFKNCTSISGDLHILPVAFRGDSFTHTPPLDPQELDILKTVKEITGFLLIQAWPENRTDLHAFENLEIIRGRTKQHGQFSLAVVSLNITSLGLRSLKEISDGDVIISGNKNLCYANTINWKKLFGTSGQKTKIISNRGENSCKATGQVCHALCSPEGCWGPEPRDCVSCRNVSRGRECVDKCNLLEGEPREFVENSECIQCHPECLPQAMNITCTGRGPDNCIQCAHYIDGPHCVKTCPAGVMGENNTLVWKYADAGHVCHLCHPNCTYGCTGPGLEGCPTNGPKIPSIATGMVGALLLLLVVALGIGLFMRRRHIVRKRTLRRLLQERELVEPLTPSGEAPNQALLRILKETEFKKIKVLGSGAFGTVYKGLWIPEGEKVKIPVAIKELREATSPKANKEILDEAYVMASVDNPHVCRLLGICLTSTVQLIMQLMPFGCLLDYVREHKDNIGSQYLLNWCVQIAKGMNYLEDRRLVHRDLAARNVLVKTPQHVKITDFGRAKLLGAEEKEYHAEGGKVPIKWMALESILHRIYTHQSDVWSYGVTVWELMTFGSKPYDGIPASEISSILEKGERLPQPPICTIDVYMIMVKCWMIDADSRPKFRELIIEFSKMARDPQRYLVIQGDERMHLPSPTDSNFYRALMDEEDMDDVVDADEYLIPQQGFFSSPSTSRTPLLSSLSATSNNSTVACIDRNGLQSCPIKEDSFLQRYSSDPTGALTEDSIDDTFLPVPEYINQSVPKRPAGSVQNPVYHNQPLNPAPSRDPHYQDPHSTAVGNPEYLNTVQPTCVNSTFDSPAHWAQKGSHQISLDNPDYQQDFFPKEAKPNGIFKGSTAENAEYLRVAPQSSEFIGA

[4] = molecular target: Epidermal growth factor receptor (Homo sapiens, UniProt P00533, C797S/L858R/T790M); test: Inhibition of human N-terminal GST-tagged EGFR triple T790M/L858R/C797S mutant (696 to 1022 residues) expressed in Sf21 insect cells by HTRF assay
Sequence of Epidermal growth factor receptor (Homo sapiens, UniProt P00533, C797S/L858R/T790M) (P00533 25-1210 T790M/C797S/L858R limits assumed): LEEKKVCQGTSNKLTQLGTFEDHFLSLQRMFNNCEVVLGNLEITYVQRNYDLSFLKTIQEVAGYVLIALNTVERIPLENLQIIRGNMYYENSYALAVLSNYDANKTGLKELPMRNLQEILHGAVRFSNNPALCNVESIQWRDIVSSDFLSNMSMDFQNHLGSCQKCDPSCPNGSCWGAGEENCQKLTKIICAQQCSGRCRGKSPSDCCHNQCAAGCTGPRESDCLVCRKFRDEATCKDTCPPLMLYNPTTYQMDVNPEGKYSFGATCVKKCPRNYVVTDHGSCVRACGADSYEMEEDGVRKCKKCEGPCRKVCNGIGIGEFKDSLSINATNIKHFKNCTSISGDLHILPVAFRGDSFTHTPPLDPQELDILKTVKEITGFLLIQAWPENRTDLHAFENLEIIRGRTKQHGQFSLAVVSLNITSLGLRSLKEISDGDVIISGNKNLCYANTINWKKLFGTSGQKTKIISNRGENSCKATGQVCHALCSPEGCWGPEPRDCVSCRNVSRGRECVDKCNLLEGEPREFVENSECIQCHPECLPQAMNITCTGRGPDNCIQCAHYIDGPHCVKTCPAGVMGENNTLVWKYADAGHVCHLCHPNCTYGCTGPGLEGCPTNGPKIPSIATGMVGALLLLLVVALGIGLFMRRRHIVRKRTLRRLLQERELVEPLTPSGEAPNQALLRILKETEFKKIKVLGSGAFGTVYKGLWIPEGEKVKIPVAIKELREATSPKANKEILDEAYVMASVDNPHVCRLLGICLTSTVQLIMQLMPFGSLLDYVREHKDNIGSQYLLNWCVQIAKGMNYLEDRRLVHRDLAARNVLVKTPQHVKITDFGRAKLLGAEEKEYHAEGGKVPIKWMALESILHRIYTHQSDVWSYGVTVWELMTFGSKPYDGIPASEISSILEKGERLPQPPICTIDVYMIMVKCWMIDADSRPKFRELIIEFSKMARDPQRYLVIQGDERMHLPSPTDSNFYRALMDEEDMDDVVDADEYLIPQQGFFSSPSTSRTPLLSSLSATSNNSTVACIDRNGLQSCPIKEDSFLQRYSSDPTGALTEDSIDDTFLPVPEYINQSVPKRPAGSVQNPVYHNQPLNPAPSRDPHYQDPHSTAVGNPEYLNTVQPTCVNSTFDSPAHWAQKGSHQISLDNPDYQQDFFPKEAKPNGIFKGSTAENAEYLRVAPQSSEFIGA

[5] = molecular target: T1, STE20-like serine/threonine-protein kinase (Homo sapiens, UniProt Q9H2G2); test: Binding affinity to wild-type human partial length SLK (S14 to A307 residues) expressed in bacterial expression system assessed as residual binding level at 10 uM by Kinomescan method
[6] = tested on: Epidermal growth factor receptor (Homo sapiens), P00533 [L858R,T790M]; test: Allosteric inhibition of human N-terminal GST-tagged EGFR double T790M/L858R mutant (696 to 1022 residues) expressed in Sf21 insect cells assessed as change in inhibition rate in presence of 1 to 1000 uM ATP by HTRF assay
[7] = molecular target: Mast/stem cell growth factor receptor Kit (Homo sapiens, UniProt P10721, V559D/V654A); test: Inhibition of recombinant human His-tagged KIT V559D/V654A double mutant expressed in baculovirus expression system at 10 uM by kinomescan assay
[8] = molecular target: T1, STE20-like serine/threonine-protein kinase; test: Inhibition of tracer 236 binding to recombinant full length human GST-tagged SLK expressed in baculovirus expression system measured after 60 mins by Lanthascreen assay relative to control

Sequence of Epidermal growth factor receptor (Homo sapiens, UniProt P00533) (P00533 whole entry, the tested form may be a part): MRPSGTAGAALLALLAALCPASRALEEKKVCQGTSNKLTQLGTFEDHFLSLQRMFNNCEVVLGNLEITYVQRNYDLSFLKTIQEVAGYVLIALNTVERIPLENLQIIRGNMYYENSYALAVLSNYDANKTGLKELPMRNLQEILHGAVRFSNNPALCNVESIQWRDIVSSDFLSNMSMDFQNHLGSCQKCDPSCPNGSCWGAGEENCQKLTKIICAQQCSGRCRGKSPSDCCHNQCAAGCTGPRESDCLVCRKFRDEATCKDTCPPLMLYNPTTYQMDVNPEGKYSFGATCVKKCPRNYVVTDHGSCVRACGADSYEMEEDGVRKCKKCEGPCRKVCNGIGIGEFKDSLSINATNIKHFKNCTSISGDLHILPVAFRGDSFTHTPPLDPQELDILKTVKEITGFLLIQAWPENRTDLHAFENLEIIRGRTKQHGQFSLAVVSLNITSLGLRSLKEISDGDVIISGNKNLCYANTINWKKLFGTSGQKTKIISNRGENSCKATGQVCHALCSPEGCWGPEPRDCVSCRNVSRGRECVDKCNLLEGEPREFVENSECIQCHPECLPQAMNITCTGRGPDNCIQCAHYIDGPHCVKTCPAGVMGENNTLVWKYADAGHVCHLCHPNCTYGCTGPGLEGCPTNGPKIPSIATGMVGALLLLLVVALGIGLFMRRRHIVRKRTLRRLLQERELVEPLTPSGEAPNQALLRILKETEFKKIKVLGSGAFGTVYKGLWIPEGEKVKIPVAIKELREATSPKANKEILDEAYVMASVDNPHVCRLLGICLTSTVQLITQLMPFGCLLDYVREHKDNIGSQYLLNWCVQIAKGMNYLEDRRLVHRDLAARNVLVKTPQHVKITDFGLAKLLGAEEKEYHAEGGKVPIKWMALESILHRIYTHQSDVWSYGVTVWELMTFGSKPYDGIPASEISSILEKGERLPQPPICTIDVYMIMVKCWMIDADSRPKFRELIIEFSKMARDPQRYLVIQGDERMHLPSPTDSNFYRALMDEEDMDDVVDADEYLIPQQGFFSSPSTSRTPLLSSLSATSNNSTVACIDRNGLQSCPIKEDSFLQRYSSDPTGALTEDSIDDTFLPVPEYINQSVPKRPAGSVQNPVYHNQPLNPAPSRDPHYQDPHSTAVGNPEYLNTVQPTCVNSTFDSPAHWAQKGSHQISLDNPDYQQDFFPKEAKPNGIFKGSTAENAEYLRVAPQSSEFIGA

Structure (SMILES) | IC50 [1] [µM] | IC50 [2] [µM] | IC50 [3] [µM] | IC50 [4] [µM] | Kd [5] [µM] | inhibition [6] | Kd [7] [µM] | IC50 [8] [µM]
O=C1c2cc(-c3ccc(N4CCNCC4)cc3)ccc2Nc2ccc(F)cc2N1Cc1ccccc1 | > 1 | 0.15 | 0.031 | 0.019 |  |  |  | 
CN1CCN(c2ccc(Oc3ccc4c(c3)C(=O)N(Cc3ccccc3)c3cc(F)ccc3N4)cc2)CC1 | > 1 | 0.154 | 0.011 | 0.013 | > 10 | inactive | > 10 | > 10

From ChEMBL document CHEMBL4406912, “Discovery and Optimization of Dibenzodiazepinones as Allosteric Mutant-Selective EGFR Inhibitors” (ACS Med Chem Lett, 2019)
